Reference: patent US20160058752A1, “TOPICAL […]-AFFECTIVE (TPNA) THERAPY FOR N[…]” (AFGIN PHARMA, LLC, priority 2014, published 2016)

Experiments:
free nerve endings = test: Onset of clinical effect of TPNA therapy; format: in vivo, human; conditions: topical
[1] = system: dopamine, norepinephrine, and serotonin receptors; conditions: topical
[2] = system: local peripheral and generalized pain; test: Nuchal (BONATH) application of compounded opioids for pain relief in patients; conditions: patients tapering off oral narcotics, nuchal delivery as only pain therapy
Excerpt: Previously described has is the “nuchal” (back of the neck at the hairline, or “BONATH”) application of triptans (Migraderm using sumatriptan) for migraine headache, tizanidine (Tizoderm) for cervical spasm and tension headache; and, apomorphine for the Parkinson's disease symptoms of tremor, rigidity, speech difficulties, and other “non-motor” symptoms.

[3] = after topical application in cold cream; cited from earlier work

| SMILES | effect on symptoms of neuropathic pain and other symptoms of nerve dysfunction [1] | narcotic withdrawal symptoms [2] | other results |
| --- | --- | --- | --- |
| CN1CCc2cccc3c2[C@H]1Cc1ccc(O)c(O)c1-3 [apomorphine] | treat symptoms of neuropathic pain |  | onset of clinical effect (free nerve endings): 10 to 15 min |
| NCCc1ccc(O)c(O)c1 [dopamine] | treat symptoms of neuropathic pain |  |  |
| CN1CC[C@]23c4c5ccc(O)c4O[C@H]2[C@@H](O)C=C[C@H]3[C@H]1C5.O=S(=O)(O)O [morphine sulfate] |  | no significant narcotic withdrawal symptoms |  |
| CN1CC[C@]23c4c5ccc(O)c4O[C@H]2[C@@H](O)C=C[C@H]3[C@H]1C5 [morphine] |  |  | morphine levels in blood or urine [3]: not detected |
| COc1cccc(C2(O)CCCCC2CN(C)C)c1 (stereo not drawn) [tramadol] |  | no significant narcotic withdrawal symptoms |  |
